IC50 and HC50 data for 2 compounds are collected here from paper PMC9598656, “In Vitro Activity of Robenidine Analogues NCL259 and NCL265 against Gram-Negative Pathogens” (Antibiotics, 2022).

Usually IC50 stands for the point on the concentration scale where inhibition reaches its midpoint.

Common to all, as to format: cell-based
For data set [1], the system named is MCF-7 (human mammary gland adenocarcinoma cell line). The data set can be described thus: In vitro cytotoxicity, WST-1. The settings on record: MCF7, 24 h. The source says:
(§1) Potential toxicity of NCL259 and NCL265 to mammalian cells relative to the parent compound (NCL812) was examined using Caco-2 (human colorectal adenocarcinoma cell line), HEL 299 (non-cancerous human lung fibroblast cell line), Hep G2 (human hepatocellular carcinoma cell line), MCF-7 (human mammary gland adenocarcinoma cell line), MDBK (normal Madin–Darby bovine kidney cell line) and Vero (normal adult African green monkey cell line), essentially as described previously. Toxicity to the cell lines was performed using serial two-fold dilutions of each compound from 128 to 1 μg/mL in duplicates in flat bottom 96 well tissue culture trays (Sarstedt 83.3924) containing approximately 2 × 10^4 cells per well in antibiotic-free Dulbecco’s Modified Eagle’s Medium (DMEM; Gibco Cat No: 12430; Thermo Fisher Scientific, Scoresby, VIC, Australia) consisting of 10% (v/v) fetal bovine serum at 37 °C, 5% CO2 for 24 h. Duplicate wells containing ampicillin at 128 to 1 μg/mL were used as controls. Thereafter, 10% (v/v) of the WST-1 cell proliferation assay reagent (Cat No: 05015944001; Roche Life Science, North Ryde, NSW, Australia) was added to each well, the trays were further incubated at 37 °C, 5% CO2 for 1 h and absorbance read at A450nm on a Multiskan Ascent 354 Spectrophotometer (Labsystems, Lilydale, VIC, Australia). The inhibitory concentration of each compound was determined as the half maximal inhibitory concentration (IC50) at A450nm.
(In general: Tetrazolium dyes change colour on reduction, which living cells bring about.)

The subject of data set [2] is Hep G2 (human hepatocellular carcinoma cell line). Kind of data set: In vitro cytotoxicity, WST-1. The settings on record: HepG2, 24 h.
Excerpt: as §1

Data set [3] concerns HEL 299 (non-cancerous human lung fibroblast cell line). The data set can be described thus: In vitro cytotoxicity, WST-1. The settings on record: HEL 299, 24 h.
Excerpt: as §1

For data set [4], the system named is MDBK (normal Madin–Darby bovine kidney cell line). The data set can be described thus: In vitro cytotoxicity, WST-1. The settings on record: Bos taurus, 24 h.
Excerpt: as §1

For data set [5], the system named is Vero (normal adult African green monkey cell line). Kind of data set: In vitro cytotoxicity, WST-1. The settings on record: Chlorocebus sabaeus, 24 h.
Excerpt: as §1

For data set [6], the system named is sheep red blood cells (SRBCs). The data set can be described thus: Hemolysis assay. The settings on record: 1 h. The procedure:
The haemolytic activity of the compounds was determined using 1% sheep red blood cells (SRBCs), as described previously. […]. After incubation at 37 °C with shaking at 100 rpm for 1 h, the trays were centrifuged at 1000× g for 3 min and 100 μL of supernatant from each well was transferred into a new 96-well tray. Absorbance was measured at A450nm on a Multiskan Ascent 354 Spectrophotometer (Labsystems) and plotted against each dilution. The haemolytic titre (HC50) of each compound was determined as the reciprocal of the dilution at which 50% of SRBCs were lysed at A450nm.

Data set [7] has as its system Caco-2 (human colorectal adenocarcinoma cell line). Kind of data set: In vitro cytotoxicity, WST-1. The settings on record: Caco-2, 24 h.
The mark [8] stands for this setting: first of two independent experiments.
Where [9] appears, read: second of two independent experiments.

≈ marks a conversion by molar mass, not a printed value.

As for `CC1(C)S[C@@H]2[C@H](NC(=O)[C@H](N)c3ccccc3)C(=O)N2[C@H]1C(=O)O` [Ampicillin, reference compound], the half-maximal inhibitory concentration (IC50) in data set [1] (setting [8]), in data set [1] (setting [9]), in data set [2] (setting [8]), in data set [2] (setting [9]), in data set [3] (setting [8]) and in data set [3] (setting [9]) was > 128 µg/mL each time. Also, the concentration for half-maximal inhibition (IC50) in data set [4] (setting [8]), in data set [4] (setting [9]), in data set [5] (setting [8]) and in data set [5] (setting [9]) was > 128 µg/mL in each case. For the same compound, the HC50 in data set [6] (1% SRBC, first of two independent experiments) was >128, >128 μg/mL; in data set [6] (1% SRBC, second of two independent experiments), >128, >128 μg/mL.

As to `N=C(N/N=C/c1ccc(Cl)cc1)N/N=C/c1ccc(Cl)cc1` [NCL812, Robenidine], the IC50 came out at 8 µg/mL (≈ 23.9 µM) in data set [1] (setting [8]); 12 µg/mL (≈ 35.9 µM) in data set [1] (setting [9]); 6 µg/mL (≈ 18 µM) in data set [2] (setting [8]); 8 µg/mL (≈ 23.9 µM) in data set [2] (setting [9]); 8 µg/mL (≈ 23.9 µM) in data set [3] (setting [8]); 6 µg/mL (≈ 18 µM) in data set [3] (setting [9]). In addition, the IC50 in data set [4] (setting [8]) came out at 8 µg/mL (≈ 23.9 µM); in data set [4] (setting [9]) it was 12 µg/mL (≈ 35.9 µM); in data set [5] (setting [8]) it was 8 µg/mL (≈ 23.9 µM); in data set [5] (setting [9]) it was 4 µg/mL (≈ 12 µM); in data set [7] (setting [8]) it was 8 µg/mL (≈ 23.9 µM); in data set [7] (setting [9]), 12 µg/mL (≈ 35.9 µM). Further, in data set [6] (sheep), the HC50 was 32, 32 μg/mL.
